# Assay results: ChEMBL document CHEMBL1157069, “JBIR-22, an inhibitor for protein-protein interaction of the homodimer of proteasome assembly factor 3” (J Nat Prod, 2010)
# Legend:
# HeLa [1] = assay: Cytotoxicity against human HeLa cells after 120 hrs by WST8 assay; format: functional, cell-based
# [2] = target: T1, Proteasome assembly chaperone 3 (Homo sapiens, UniProt Q9BT73); assay: Inhibition of PAC3 homodimerization by protein fragment complementation assay
# T1 sequence (Q9BT73 whole entry): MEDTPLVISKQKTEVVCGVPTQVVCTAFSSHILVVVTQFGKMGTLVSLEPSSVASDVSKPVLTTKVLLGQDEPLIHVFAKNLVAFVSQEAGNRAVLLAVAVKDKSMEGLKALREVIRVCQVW
# PAC1-PAC2 complex = target: T2, PAC1-PAC2 complex (Homo sapiens, UniProt O95456+Q969U7); assay: Inhibition of PAC1/PAC2 interaction by protein fragment complementation assay; format: protein-complex assay
# T2 sequence (O95456 whole entry): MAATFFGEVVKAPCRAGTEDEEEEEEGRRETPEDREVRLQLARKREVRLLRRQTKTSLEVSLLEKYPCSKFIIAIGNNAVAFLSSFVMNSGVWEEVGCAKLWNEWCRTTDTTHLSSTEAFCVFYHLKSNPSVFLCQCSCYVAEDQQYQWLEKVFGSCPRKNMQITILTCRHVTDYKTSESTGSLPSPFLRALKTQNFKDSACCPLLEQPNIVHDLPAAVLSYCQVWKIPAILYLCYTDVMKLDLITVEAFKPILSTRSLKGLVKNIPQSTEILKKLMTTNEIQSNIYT
# T2 sequence (Q969U7 whole entry): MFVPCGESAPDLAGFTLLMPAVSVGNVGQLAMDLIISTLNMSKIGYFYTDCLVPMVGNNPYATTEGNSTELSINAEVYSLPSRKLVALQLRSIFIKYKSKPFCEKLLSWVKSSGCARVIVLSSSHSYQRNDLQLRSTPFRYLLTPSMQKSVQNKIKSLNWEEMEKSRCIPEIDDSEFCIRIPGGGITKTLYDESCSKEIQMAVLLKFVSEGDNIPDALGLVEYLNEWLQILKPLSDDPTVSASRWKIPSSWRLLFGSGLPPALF
# [3] = target: Catenin beta-1/Transcription factor 7 (Homo sapiens, UniProt P35222+P36402); assay: Inhibition of T cell factor7/beta-catenin interaction by protein fragment complementation assay; format: cell-based
# HeLa [4] = assay: Cytotoxicity against human HeLa cells after 48 hrs by WST8 assay; format: functional, cell-based
# Catenin beta-1/Transcription factor 7, sequence (P36402 whole entry, the tested form may be a part): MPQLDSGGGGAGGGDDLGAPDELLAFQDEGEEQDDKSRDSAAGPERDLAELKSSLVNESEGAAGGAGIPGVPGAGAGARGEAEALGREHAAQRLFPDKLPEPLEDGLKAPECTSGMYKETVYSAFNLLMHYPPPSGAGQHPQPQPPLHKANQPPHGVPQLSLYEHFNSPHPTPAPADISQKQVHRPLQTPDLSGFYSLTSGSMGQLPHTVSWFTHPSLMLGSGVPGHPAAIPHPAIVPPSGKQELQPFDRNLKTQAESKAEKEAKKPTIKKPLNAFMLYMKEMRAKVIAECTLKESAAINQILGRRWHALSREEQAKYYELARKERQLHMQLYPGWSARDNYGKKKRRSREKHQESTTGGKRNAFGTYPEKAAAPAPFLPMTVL
# Catenin beta-1/Transcription factor 7, sequence (P35222 whole entry, the tested form may be a part): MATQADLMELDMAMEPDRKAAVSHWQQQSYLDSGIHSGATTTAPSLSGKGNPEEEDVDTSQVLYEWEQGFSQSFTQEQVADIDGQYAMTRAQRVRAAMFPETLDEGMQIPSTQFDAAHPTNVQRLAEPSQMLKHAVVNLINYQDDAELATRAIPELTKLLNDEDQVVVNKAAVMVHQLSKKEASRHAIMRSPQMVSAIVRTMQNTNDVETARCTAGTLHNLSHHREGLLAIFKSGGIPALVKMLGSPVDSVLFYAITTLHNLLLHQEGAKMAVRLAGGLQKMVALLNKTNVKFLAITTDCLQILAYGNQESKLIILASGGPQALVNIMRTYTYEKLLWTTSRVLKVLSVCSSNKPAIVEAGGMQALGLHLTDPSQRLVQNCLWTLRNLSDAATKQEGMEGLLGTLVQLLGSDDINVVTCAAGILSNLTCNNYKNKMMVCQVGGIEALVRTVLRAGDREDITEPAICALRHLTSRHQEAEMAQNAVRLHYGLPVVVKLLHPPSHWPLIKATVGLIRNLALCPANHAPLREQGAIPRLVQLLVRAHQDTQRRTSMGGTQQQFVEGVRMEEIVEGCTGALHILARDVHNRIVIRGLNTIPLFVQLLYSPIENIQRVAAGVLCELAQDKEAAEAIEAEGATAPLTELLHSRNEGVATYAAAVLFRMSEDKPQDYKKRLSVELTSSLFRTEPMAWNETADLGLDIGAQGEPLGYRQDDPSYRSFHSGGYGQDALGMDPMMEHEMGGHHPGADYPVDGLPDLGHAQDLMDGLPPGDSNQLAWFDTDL
IC50 [2] [nM],IC50 (PAC1-PAC2 complex) [nM],IC50 [3] [nM],Compound,IC50 (HeLa [1]) [nM],IC50 (HeLa [4]) [nM]
200,6000,6000,CC(C)[C@@](O)(C[C@H]1C(=O)/C(=C(\O)[C@H]2[C@@H]3CCCC[C@H]3C=C[C@H]2C)C(=O)N1C)C(=O)O,68000,
,,,COc1cccc2c1C(=O)c1c(O)c3c(c(O)c1C2=O)C[C@@](O)(C(=O)CO)C[C@@H]3O[C@H]1C[C@H](N)[C@H](O)[C@H](C)O1 [DOXORUBICIN],55,37
,,,CC(=O)O[C@H]1C(=O)[C@@]2(C)[C@H]([C@H](OC(=O)c3ccccc3)[C@]3(O)C[C@H](OC(=O)[C@H](O)[C@@H](NC(=O)c4ccccc4)c4ccccc4)C(C)=C1C3(C)C)[C@]1(OC(C)=O)CO[C@@H]1C[C@@H]2O [PACLITAXEL],190,30
